Data reported in patent US20030153621A1, “Use of 13-hode as a regulator of vascular biocompatibility and an inhibitor of cell hyperplasia” (priority 2000, published 2003).
Like-named read-outs stand apart in the source and are kept apart here. Values belong to the compound of their own block, whether it stands above or below them.

Key:
intimal SMC hyperplasia = conditions: cited from earlier work
[1] = dose comparable to that used clinically; cited from earlier work
[2] = system: Platelet/injured VW interactions; conditions: dose comparable to that used clinically; cited from earlier work
Sarcoma 180 tumors = conditions: given orally; cited from earlier work
[3] = human, in vivo; cited from earlier work
[4] = 3.2 gm daily (20 capsules) for 30 days; cited from earlier work
[5] = system: Platelet/injured VW interactions; conditions: 3.2 gm daily for 30 days; cited from earlier work
[6] = Stability of 13-HODE in dosage forms (oil or ester carrier); type: physicochemical; conditions: dissolved in a triglyceride oil carrier or an ester
Experimental: A real problem is presented by the fact that active daily doses of 13-HODE are in the 50 to 1,000 μg/kg/day range. […] That translates into a […] dose for a 70 kg person. Since doses for humans are often considerably lower than doses for animals because of a weight/body surface area scaling, a daily dose of as little as 5 mg or less is really possible. Formulating an oily liquid is such small doses is a problem. It could be absorbed into tabletting materials and tabletted and coated, or micro-encapsulated by methods well known to those skilled in the art. […] Other triglyceride oils such as vegetable oil, including sunflower, safflower, soy, evening primrose, borage, coconut or palm oil, or cottonseed, rapeseed, olive, fish body or fish liver oils may all be used for this purpose. Particualrly useful esters for this purpose are esters of fatty acids with 16-26 carbon atoms and one or more double bonds in the chain.

[7] = Observation of hemorrhagic defect in the experimental animals; type: in vivo, rabbits; conditions: any of the experimental animals
Experimental: (§1) New Zealand white rabbits (half males/half females; 2.5-2.9 kg) were used throughout. Rabbits were treated with 100, 400 or 1000 μg/kg/day of purified 13-HODE suspended in corn oil or ethyl-eicosapentaenoic acid (EPA), or with an equivolume of either suspending vehicle (total volume 1 ml) for 7 days. Serial blood samples were collected before, during and after treatment to assess the levels of 13-HODE in plasma. On day 7, the treatments were stopped. At that time, the rabbits were anaesthetised with a combination of Atravet, Ketamine, Vetrepham and glycopyrolate, given subcutaneously. Both carotid arteries of anaesthetised rabbits were isolated between 2 temporary ligatures, first by applying the proximal ligature, then allowing the blood to drain from the segment, and then applying the distal ligature. A 24-gauge angiocath attached to tubing filled with sterile saline and connected to a pressure manometer, was inserted into the isolated segment. Then the segment was filled with the saline to a pressure of 600 mm Hg which was maintained for 5 minutes. The pressure was relieved, and the angiocath and ligatures were removed, thereby allowing for blood flow restoration. Cessation of bleeding from the needle puncture site was achieved within 3 minutes without any manual manipulation. The incisions were sutured closed with 000 proline. […]

[8] = system: VW intimal hyperplasia of injured carotid arteries; assay: Intimal hyperplasia after carotid artery pressure injury in rabbits; type: in vivo, New Zealand white rabbits; conditions: for intimal hyperplasia: 1,000 μg/kg/day for 7 days
Experimental: (§2) New Zealand white rabbits (half males/half females; 2.5-2.9 kg) were used throughout. Rabbits were treated with 100, 400 or 1000 μg/kg/day of purified 13-HODE suspended in corn oil or ethyl-eicosapentaenoic acid (EPA), or with an equivolume of either suspending vehicle (total volume 1 ml) for 7 days. Serial blood samples were collected before, during and after treatment to assess the levels of 13-HODE in plasma. On day 7, the treatments were stopped. At that time, the rabbits were anaesthetised with a combination of Atravet, Ketamine, Vetrepham and glycopyrolate, given subcutaneously. Both carotid arteries of anaesthetised rabbits were isolated between 2 temporary ligatures, first by applying the proximal ligature, then allowing the blood to drain from the segment, and then applying the distal ligature. A 24-gauge angiocath attached to tubing filled with sterile saline and connected to a pressure manometer, was inserted into the isolated segment. Then the segment was filled with the saline to a pressure of 600 mm Hg which was maintained for 5 minutes. The pressure was relieved, and the angiocath and ligatures were removed, thereby allowing for blood flow restoration. Cessation of bleeding from the needle puncture site was achieved within 3 minutes without any manual manipulation. The incisions were sutured closed with 000 proline. The rabbits were injected intramuscularly with Temgesic to minimize any pain and with 12.5 mg Baytril as an antibiotic, and then allowed to recover. This injury procedure results in endothelial denudation and the exposure of a thrombogenic surface within 1 hour of restoration of blood flow, followed by SMC proliferation and intimal hyperplasia, which plateaus at 4 weeks and which is sustained for ±12 weeks (Buchanan MR, Brister SJ: 1998; Buchanan MR et al. 1999).
(§3) Two, four or twelve weeks later, the rabbits were re-anaesthetised and their injured carotid arteries were again isolated. Segments of injured and uninjured carotid artery were harvested and processed histologically to assess VW hyperplasia. Other VW segments and blood samples were collected and processed for VW and plasma 13-HODE levels.

[9] = Vessel wall 13-HODE levels in rabbits after oral 13-HODE; type: in vivo, New Zealand white rabbits
Experimental: as §1

[10] = Plasma 13-HODE levels in rabbits after oral 13-HODE; type: in vivo, New Zealand white rabbits
Experimental: as §2, §3

[11] = suspended in ethyl-EPA, all treatment levels

SMILES: OCCN(CCO)c1nc(N2CCCCC2)c2nc(N(CCO)CCO)nc(N3CCCCC3)c2n1 [Persantine, dipyridamole]
- SMC hyperplasia (intimal SMC hyperplasia; 1 mg/kg/day for 7 days before injury, 4 weeks after VW injury): inhibited
- platelet function (intimal SMC hyperplasia; 1 mg/kg/day for 7 days): unchanged
- increase of VW 13-HODE [1]: 30 to 50%
- decrease of platelet/injured VW interactions [2]: > 2 fold

SMILES: CCCCC/C=C\C=C\C(O)CCCCCCCC(=O)O (stereo not shown) [9-HODE, 9-hydroxy-10(E)12(Z) octadecadienoic acid]
- minimum effective dose for inhibition of tumour growth rate (Sarcoma 180 tumors): 55 mg/kg/day

SMILES: CC(=O)Oc1ccccc1C(=O)O [ASA]
- overall risk reduction (stroke, myocardial infarction, transient ischemic attacks) [3]: 25%

SMILES: CCCCC/C=C\C/C=C\CCCCCCCC(=O)O [linoleic acid, Octa-deca-9Z, 12Z-dienoic acid]
- increase of VW 13-HODE levels [4]: 2 fold
- decrease of platelet/injured VW interactions [5]: > 2 fold

- stability of dosage form [6]: stable without degradation
- hemorrhagic defect [7]: no detectable hemorrhagic defect
- VW 13-HODE levels ([9]; suspended in corn oil, measured 28 days after stopping the treatment): dose-related increase
- absolute levels of VW 13-HODE versus corn oil vehicle [9, 11]: somewhat lower
- increase in the plasma 13-HODE levels ([10]; 100 μg/kg/day oral, 7 days, suspended in corn oil): three-fold
- time to significantly elevated 13-HODE level in cell-free plasma ([10]; 1,000 μg/kg/day oral): ≤ 3 days
- effect of increasing the dose on plasma 13-HODE levels ([10]; 1,000 μg/kg/day vs 100 μg/kg/day, corn oil): no further effect
- time 13-HODE level in cell-free plasma remained elevated ([10]; 1,000 μg/kg/day, treatment stopped after 7 days): 4 weeks
- time for plasma 13-HODE levels to return to almost control levels ([10]; after 7 day oral treatment, corn oil): 14 to 21 days
- absolute levels of plasma 13-HODE versus corn oil vehicle [10, 11]: lower
SMILES: CCCCCC(O)/C=C/C=C\CCCCCCCC(=O)O (stereo not shown) [13-HODE, 13-hydroxyoctadeca-9Z, 11E-dienoic acid]
- intimal VW hyperplasia ([8]; 100 μg/kg/day for 7 days, in corn oil or ethyl-EPA, p<0.001): significantly inhibited
- intimal hyperplasia ([8]; 2 weeks after injury, placebo 18%): 8%
- intimal hyperplasia ([8]; 4 weeks after injury, placebo 38%): 16%
- intimal hyperplasia ([8]; 12 weeks after injury): > 3%
